Laboratory results from ChEMBL document CHEMBL2029234, “Sulfonyl-morpholino-pyrimidines: SAR and development of a novel class of selective mTOR kinase inhibitor” (Bioorg Med Chem Lett, 2012).
≈ marks a conversion by molar mass, not a printed value. Blank lines part the entries; values can stand above or below the compound they belong to.

Columns and labels:
[1] = biological target: Voltage-gated inwardly rectifying potassium channel KCNH2 (Homo sapiens, UniProt Q12809)
[2] = Oral bioavailability in rat; type: ADME, organism-based; settings: in vivo
[3] = biological target: Phosphatidylinositol 4,5-bisphosphate 3-kinase catalytic subunit alpha isoform (Homo sapiens, UniProt P42336); assay: Inhibition of human recombinant PI3Kalpha expressed in baculovirus system using PI(4,5)P2 as substrate after 20 mins
[4] = Plasma clearance in iv dosed rat; type: ADME, organism-based
[5] = Inhibition of Akt Ser473 phosphorylation in human MDA-MB-468 cells after 2 hrs; type: cell-based; settings: MDA-MB-468, 2 h
[6] = biological target: Serine/threonine-protein kinase mTOR (Homo sapiens, UniProt P42345); assay: Inhibition of recombinant FLAG-tagged mTOR kinase expressed in HEK293 cells using Biotin-Ahx-Lys-Lys-Ala-Asn-Gln-Val-Phe-Leu-Gly-Phe-Thr-Tyr-Val-Ala-Pro-Ser-Val-Leu-Glu-Ser-Val-Lys-Glu-NH2 as substrate after 90 mins
physchem [7] = settings: aqueous, pH 7.4
physchem [8] = settings: buffer, pH 7.4
[9] = Fraction unbound in rat plasma; type: ADME, cell-free
[10] = Inhibition of Cytochrome P450; type: ADME
[11] = Apparent permeability from basal to apical side of MDCK cells; type: ADME, cell-based, Canis lupus familiaris; settings: dog
[12] = Apparent permeability from apical to basal side of MDCK cells; type: ADME, cell-based, Canis lupus familiaris; settings: dog
[13] = Volume of distribution in iv dosed rat; type: ADME, organism-based; settings: in vivo
Cytochrome P450 2C9 = Cytochrome P450 2C9 (Homo sapiens, UniProt P11712); assay: Inhibition of CYP2C9; type: ADME
Cytochrome P450 2C9, sequence (P11712 whole entry): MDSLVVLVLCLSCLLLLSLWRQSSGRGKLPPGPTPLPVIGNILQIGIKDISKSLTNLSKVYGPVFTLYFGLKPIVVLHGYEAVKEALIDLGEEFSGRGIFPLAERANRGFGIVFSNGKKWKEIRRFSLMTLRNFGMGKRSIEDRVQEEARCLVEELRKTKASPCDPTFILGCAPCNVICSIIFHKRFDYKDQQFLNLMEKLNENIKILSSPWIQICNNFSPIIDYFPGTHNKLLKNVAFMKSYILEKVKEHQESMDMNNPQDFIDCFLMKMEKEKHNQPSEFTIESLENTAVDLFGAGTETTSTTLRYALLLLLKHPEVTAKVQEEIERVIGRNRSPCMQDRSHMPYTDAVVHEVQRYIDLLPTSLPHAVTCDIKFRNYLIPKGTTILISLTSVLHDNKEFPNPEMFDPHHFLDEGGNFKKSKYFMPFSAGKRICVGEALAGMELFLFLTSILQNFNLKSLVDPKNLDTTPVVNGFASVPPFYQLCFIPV

Voltage-gated inwardly rectifying potassium channel KCNH2, sequence (Q12809 whole entry): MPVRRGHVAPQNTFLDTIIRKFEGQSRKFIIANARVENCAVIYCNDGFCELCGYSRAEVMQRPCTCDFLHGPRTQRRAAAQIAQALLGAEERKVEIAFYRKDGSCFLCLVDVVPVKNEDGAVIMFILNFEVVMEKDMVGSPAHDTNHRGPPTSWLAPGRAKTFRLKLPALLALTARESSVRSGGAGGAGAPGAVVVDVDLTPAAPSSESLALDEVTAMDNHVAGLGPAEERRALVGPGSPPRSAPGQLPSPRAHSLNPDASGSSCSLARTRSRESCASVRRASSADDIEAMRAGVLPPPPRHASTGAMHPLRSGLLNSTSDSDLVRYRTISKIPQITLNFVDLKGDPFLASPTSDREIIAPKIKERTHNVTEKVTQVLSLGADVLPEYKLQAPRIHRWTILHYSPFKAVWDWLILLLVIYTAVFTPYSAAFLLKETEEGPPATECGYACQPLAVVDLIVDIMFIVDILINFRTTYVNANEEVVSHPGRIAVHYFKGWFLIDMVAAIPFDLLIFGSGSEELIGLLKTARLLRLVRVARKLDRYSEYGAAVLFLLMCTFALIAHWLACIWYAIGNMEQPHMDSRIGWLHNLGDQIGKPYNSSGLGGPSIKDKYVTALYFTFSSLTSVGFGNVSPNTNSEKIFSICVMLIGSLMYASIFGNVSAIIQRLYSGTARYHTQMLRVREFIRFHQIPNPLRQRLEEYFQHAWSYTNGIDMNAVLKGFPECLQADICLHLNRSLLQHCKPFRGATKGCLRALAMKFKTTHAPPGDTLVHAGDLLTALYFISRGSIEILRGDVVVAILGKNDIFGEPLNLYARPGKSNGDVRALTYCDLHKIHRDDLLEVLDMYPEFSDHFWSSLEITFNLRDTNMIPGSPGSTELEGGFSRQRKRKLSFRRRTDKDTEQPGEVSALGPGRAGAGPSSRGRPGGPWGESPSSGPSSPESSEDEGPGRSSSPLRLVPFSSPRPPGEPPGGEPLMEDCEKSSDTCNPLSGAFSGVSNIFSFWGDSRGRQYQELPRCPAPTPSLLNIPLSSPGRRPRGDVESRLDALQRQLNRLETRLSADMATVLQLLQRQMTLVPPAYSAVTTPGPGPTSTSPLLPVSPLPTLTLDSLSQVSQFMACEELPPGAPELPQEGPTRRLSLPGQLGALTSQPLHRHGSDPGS
Phosphatidylinositol 4,5-bisphosphate 3-kinase catalytic subunit alpha isoform, sequence (P42336 whole entry, canonical isoform): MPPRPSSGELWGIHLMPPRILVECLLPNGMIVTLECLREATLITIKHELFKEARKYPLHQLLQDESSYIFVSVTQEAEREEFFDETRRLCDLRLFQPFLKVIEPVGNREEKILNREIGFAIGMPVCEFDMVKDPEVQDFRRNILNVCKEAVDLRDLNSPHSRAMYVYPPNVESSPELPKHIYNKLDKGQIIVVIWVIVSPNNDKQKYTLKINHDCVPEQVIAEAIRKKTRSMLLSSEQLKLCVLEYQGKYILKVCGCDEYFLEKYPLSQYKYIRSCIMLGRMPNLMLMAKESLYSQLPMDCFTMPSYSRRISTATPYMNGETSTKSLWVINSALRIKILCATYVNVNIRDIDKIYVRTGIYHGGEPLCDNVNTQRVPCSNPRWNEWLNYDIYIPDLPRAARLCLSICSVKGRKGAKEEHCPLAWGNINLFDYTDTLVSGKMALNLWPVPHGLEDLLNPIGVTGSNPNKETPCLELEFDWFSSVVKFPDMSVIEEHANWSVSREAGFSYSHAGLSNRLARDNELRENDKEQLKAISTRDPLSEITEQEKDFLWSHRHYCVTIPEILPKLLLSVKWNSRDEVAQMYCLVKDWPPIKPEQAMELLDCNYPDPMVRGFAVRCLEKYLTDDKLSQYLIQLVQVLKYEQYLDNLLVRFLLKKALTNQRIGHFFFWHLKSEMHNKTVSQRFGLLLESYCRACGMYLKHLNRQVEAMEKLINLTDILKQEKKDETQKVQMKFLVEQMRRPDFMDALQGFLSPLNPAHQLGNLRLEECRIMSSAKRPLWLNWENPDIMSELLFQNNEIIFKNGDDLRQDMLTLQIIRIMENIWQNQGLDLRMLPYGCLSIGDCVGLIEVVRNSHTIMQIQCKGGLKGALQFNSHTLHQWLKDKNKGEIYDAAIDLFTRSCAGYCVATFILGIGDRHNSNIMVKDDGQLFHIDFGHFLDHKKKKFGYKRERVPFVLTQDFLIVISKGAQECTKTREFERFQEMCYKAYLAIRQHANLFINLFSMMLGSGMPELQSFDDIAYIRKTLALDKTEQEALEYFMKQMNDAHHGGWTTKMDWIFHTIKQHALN

SMILES: CS(=O)(=O)Cc1cc(N2CCOCC2)nc(NC(=O)c2ccno2)n1
IC50 [3]: > 100 µM | logD (physchem [8]): 1.74 | IC50 [5]: 5.1 µM | IC50 [6]: 0.037 µM | fraction unbound [9]: 0.32

SMILES: O=S(=O)(Cc1cc(N2CCOCC2)nc(-c2ccccn2)n1)c1ccccc1
IC50 [1]: > 32 µM | bioavailability [2]: 18% | clearance [4]: 32 mL/min/kg | logD (physchem [8]): 1.34 | IC50 [10]: > 10 µM | IC50 [5]: 9.2 µM

SMILES: CS(=O)(=O)Cc1cc(N2CCOCC2)nc(-c2ccc(NC(=O)Nc3ccc(F)cc3)cc2)n1
logD (physchem [8]): > 3.2

SMILES: COCc1cccc(-c2nc(CS(C)(=O)=O)cc(N3CCOCC3)n2)c1
IC50 [3]: > 300 µM | IC50 [6]: 22.5 µM

SMILES: O=S(=O)(CCc1cnccn1)Cc1cc(N2CCOCC2)nc(-c2ccccn2)n1
IC50 [3]: > 90 µM | logD (physchem [8]): < 0.5 | IC50 [5]: > 80 µM | IC50 [6]: 3.16 µM

SMILES: CS(=O)(=O)Cc1cc(N2CCOCC2)nc(-c2ccc(NS(C)(=O)=O)cc2)n1
bioavailability [2]: 38% | IC50 [3]: > 100 µM | clearance [4]: 15 mL/min/kg | logD (physchem [8]): 0.85 | IC50 [5]: > 20 µM | solubility (physchem [7]): 11 µM (≈ 4.69 µg/mL) | fraction unbound [9]: > 0.66

SMILES: CS(=O)(=O)Cc1cc(N2CCOCC2)nc(-c2ccc3[nH]ccc3c2)n1
IC50 [1]: > 32 µM | Papp B→A [11]: 34 ×10⁻⁶ cm/s | bioavailability [2]: 3% | Papp A→B [12]: 37 ×10⁻⁶ cm/s | Vd [13]: 0.4 L/kg | clearance [4]: 4 mL/min/kg | logD (physchem [8]): 2.1 | IC50 [5]: 5.7 µM | solubility (physchem [7]): 6.2 µM (≈ 2.31 µg/mL) | IC50 (Cytochrome P450 2C9): 5 µM | fraction unbound [9]: 0.193

SMILES: CS(=O)(=O)Cc1cc(N2CCOCC2)nc(-c2ccccc2)n1
bioavailability [2]: 97% | IC50 [3]: > 1000 µM | clearance [4]: 11 mL/min/kg | logD (physchem [8]): 1.94 | IC50 [10]: > 10 µM | IC50 [5]: > 30 µM | IC50 [6]: 5 µM | fraction unbound [9]: 0.28

Continued, in another order:

bioavailability [2]: 43% | IC50 [3]: 0.98 µM | clearance [4]: 4 mL/min/kg | IC50 [5]: 1.03 µM | IC50 [6]: 0.262 µM | solubility (physchem [7]): 48 µM (≈ 17.9 µg/mL)
SMILES: CS(=O)(=O)Cc1cc(N2CCOCC2)nc(-c2cnc3[nH]ccc3c2)n1
IC50 [1]: > 32 µM

IC50 [3]: 7.6 µM | IC50 [5]: 12.4 µM | IC50 [6]: 1.38 µM
SMILES: O=S(=O)(Cc1cc(N2CCOCC2)nc(-c2ccccn2)n1)c1ccc(F)cc1

bioavailability [2]: 10% | IC50 [3]: 1.06 µM | clearance [4]: 37 mL/min/kg | IC50 [5]: 7.2 µM | IC50 [6]: 0.285 µM
SMILES: CS(=O)(=O)Cc1cc(N2CCOCC2)nc(-c2ccc3[nH]cnc3c2)n1
IC50 [1]: > 32 µM

IC50 [3]: 36.7 µM | IC50 [5]: > 30 µM | IC50 [6]: 1.54 µM
SMILES: CC(C)S(=O)(=O)Cc1cc(N2CCOCC2)nc(-c2ccccn2)n1

bioavailability [2]: 41% | IC50 [3]: 2.05 µM | clearance [4]: 25 mL/min/kg | IC50 [5]: 3.4 µM | IC50 [6]: 0.601 µM | fraction unbound [9]: 0.447
SMILES: CS(=O)(=O)Cc1cc(N2CCOCC2)nc(-c2cccc(CO)c2)n1

bioavailability [2]: 33% | IC50 [3]: 22.9 µM | clearance [4]: 36 mL/min/kg | logD (physchem [8]): 2.4 | IC50 [5]: 1.88 µM | solubility (physchem [7]): 192 µM (≈ 74.2 µg/mL) | fraction unbound [9]: 0.167
SMILES: C[C@H]1COCCN1c1cc(CS(C)(=O)=O)nc(-c2ccc3[nH]ccc3c2)n1

IC50 [3]: 5.3 µM | IC50 [5]: 3.1 µM
SMILES: C[C@@H]1COCCN1c1cc(CS(C)(=O)=O)nc(-c2ccc3[nH]ccc3c2)n1

IC50 [3]: > 24 µM | IC50 [6]: > 100 µM
SMILES: Cn1ccc2cc(-c3nc(CS(C)(=O)=O)cc(N4CCOCC4)n3)ccc21

IC50 [3]: > 48 µM | IC50 [5]: 1.9 µM | IC50 [6]: 0.252 µM | solubility (physchem [7]): 1.5 µM (≈ 0.598 µg/mL) | fraction unbound [9]: 0.22
SMILES: CS(=O)(=O)Cc1cc(N2CC3CCC(C2)O3)nc(-c2ccc3[nH]ccc3c2)n1
IC50 [1]: > 32 µM

IC50 [3]: 14.3 µM | logD (physchem [8]): 1.7 | IC50 [5]: 6.3 µM | IC50 [6]: 1.46 µM | solubility (physchem [7]): 13 µM (≈ 4.84 µg/mL) | fraction unbound [9]: 0.301
SMILES: CS(=O)(=O)Cc1cc(N2CCOCC2)nc(-c2cccc3[nH]ccc23)n1
IC50 [1]: > 33 µM
